Laboratory results reported in PubChem BioAssay AID2060623 (Molecular Pharmacology Branch, DTP, NCI, 2025).
“And” between values parts separate entries of the source, which are not always exact repeats. Equal entries are not always repeated.

Tested on: 227483-062-R1-J1-PDC complex spheroids with HUVEC/MSC, viability
Assay: Anticancer human tumor 227483-062-R1-J1-PDC patient-derived pancreatic carcinoma cell line growth inhibition [CLK]
Conditions: for viability, T/C: stronger effect = lower value; active = viability on the fitted dose curve at most 10% of control; inactive = the rest
Summary of the method: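 Multi-cell-type spheroids combined patient-derived tumor cells with HUVEC endothelial cells and human mesenchymal stem cells. Paired agents were dosed in half-log steps down from about clinical Cmax, or from 10 microM where Cmax was unknown.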

[1] = curve of first compound, second compound 0.0316 µM
[2] = curve of first compound, second compound 0.1 µM
[3] = curve of first compound, second compound 0.316 µM
[4] = curve of first compound, second compound 1 µM
[5] = curve of first compound, second compound 3.16 µM
[6] = curve of first compound, second compound 10 µM
[7] = second compound 0.0316 µM, first compound 0.00316 µM
[8] = second compound 0.0316 µM, first compound 0.01 µM
[9] = second compound 0.0316 µM, first compound 0.0316 µM
[10] = second compound 0.0316 µM, first compound 0.1 µM
[11] = second compound 0.0316 µM, first compound 0.316 µM
[12] = second compound 0.0316 µM, first compound 1 µM
[13] = second compound 0.1 µM, first compound 0.00316 µM
[14] = second compound 0.1 µM, first compound 0.01 µM
[15] = second compound 0.1 µM, first compound 0.0316 µM
[16] = second compound 0.1 µM, first compound 0.1 µM
[17] = second compound 0.1 µM, first compound 0.316 µM
[18] = second compound 0.1 µM, first compound 1 µM
[19] = second compound 0.316 µM, first compound 0.00316 µM
[20] = second compound 0.316 µM, first compound 0.01 µM
[21] = second compound 0.316 µM, first compound 0.0316 µM
[22] = second compound 0.316 µM, first compound 0.1 µM
[23] = second compound 0.316 µM, first compound 0.316 µM
[24] = second compound 0.316 µM, first compound 1 µM
[25] = second compound 1 µM, first compound 0.00316 µM
[26] = second compound 1 µM, first compound 0.01 µM
[27] = second compound 1 µM, first compound 0.0316 µM
[28] = second compound 1 µM, first compound 0.1 µM
[29] = second compound 1 µM, first compound 0.316 µM
[30] = second compound 1 µM, first compound 1 µM
[31] = second compound 3.16 µM, first compound 0.00316 µM
[32] = second compound 3.16 µM, first compound 0.01 µM
[33] = second compound 3.16 µM, first compound 0.0316 µM
[34] = second compound 3.16 µM, first compound 0.1 µM
[35] = second compound 3.16 µM, first compound 0.316 µM
[36] = second compound 3.16 µM, first compound 1 µM
[37] = second compound 10 µM, first compound 0.00316 µM
[38] = second compound 10 µM, first compound 0.01 µM
[39] = second compound 10 µM, first compound 0.0316 µM
[40] = second compound 10 µM, first compound 0.1 µM
[41] = second compound 10 µM, first compound 0.316 µM
[42] = second compound 10 µM, first compound 1 µM
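Note: spheroids exposed to compounds for seven days before readout.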
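Throughout, for viability, T/C: percent of DMSO vehicle control luminescence as 100% viability.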

COc1c(OCCCN2CCOCC2)ccc2c3n(c(=NC(=O)c4cnc(N)nc4)nc12)CCN3 + CNC(=O)c1ccc(Nc2nc(OC3CCCC3)c3c(-c4ccc5nc(C)oc5c4)c[nH]c3n2)c(OC)c1
> 1000 nM: IC50 [1]
4.26 nM: IC50 [5]
inactive: viability, T/C [7] 94.9% | viability, T/C [8] 93.6% | viability, T/C [9] 79.5% | viability, T/C [10] 69% | viability, T/C [11] 70% | viability, T/C [12] 51.2% | viability, T/C [13] 96% | viability, T/C [14] 89.5% | viability, T/C [15] 56.2% | viability, T/C [16] 58.7% | viability, T/C [17] 44.1% | viability, T/C [18] 41% | viability, T/C [19] 87.4% | viability, T/C [20] 55.1% | viability, T/C [21] 59.8% | viability, T/C [22] 52.2% | viability, T/C [23] 37.9% | viability, T/C [24] 32.2% | viability, T/C [25] 55.9% | viability, T/C [26] 56.7% | viability, T/C [27] 39.9% | viability, T/C [28] 32.2% | viability, T/C [29] 26.3% | viability, T/C [30] 20.6% | viability, T/C [31] 50.3% | viability, T/C [32] 48.3% | viability, T/C [33] 34.9% | viability, T/C [34] 22.3% | viability, T/C [35] 18.4% | viability, T/C [36] 14.8% | viability, T/C [37] 43.1% | viability, T/C [38] 36.9% | viability, T/C [39] 30.3% | viability, T/C [40] 21.2% | viability, T/C [41] 18% | viability, T/C [42] 16.3%
10.6 nM: IC50 [4]
61.2 nM: IC50 [3]
< 3.16 nM: IC50 [6]
80.7 nM: IC50 [2]

Cn1ncnc1[C@H]1c2n[nH]c(=O)c3cc(F)cc(c23)N[C@@H]1c1ccc(F)cc1
inactive: viability, T/C (compound 0.000316 µM) 93.6% and 98% | viability, T/C (compound 0.001 µM) 127% and 115% | viability, T/C (compound 0.00316 µM) 91.9% and 102% | viability, T/C (compound 0.01 µM) 120% and 97% | viability, T/C (compound 0.0316 µM) 110% and 101% | viability, T/C (compound 0.1 µM) 104% and 98%
> 100 nM: IC50 (curve of compound)

CCc1c2c(nc3ccc(O)cc13)-c1cc3c(c(=O)n1C2)COC(=O)[C@]3(O)CC + CN1CCN(c2cc(C(=O)Nc3cc4cc(-c5cnn(C)c5)ccc4cn3)ccn2)CC1
12.9 nM: IC50 [2]
active: viability, T/C [19] 3.53% | viability, T/C [20] 4.77% | viability, T/C [21] 3.57% | viability, T/C [22] 4.05% | viability, T/C [23] 1.85% | viability, T/C [24] 0.98% | viability, T/C [25] 1.32% | viability, T/C [26] 1.1% | viability, T/C [27] 1.61% | viability, T/C [28] 1.38% | viability, T/C [29] 2.57% | viability, T/C [30] 2.01% | viability, T/C [31] 4.99% | viability, T/C [32] 2.04% | viability, T/C [33] 2.02% | viability, T/C [34] 2.48% | viability, T/C [35] 5.26% | viability, T/C [36] 2.04% | viability, T/C [37] 1.98% | viability, T/C [38] 1.03% | viability, T/C [39] 0.86% | viability, T/C [40] 2.28% | viability, T/C [41] 0.94% | viability, T/C [42] 0.92%
276 nM: IC50 [1]
< 3.16 nM: IC50 [3] | IC50 [4] | IC50 [5] | IC50 [6]
inactive: viability, T/C [7] 96.7% | viability, T/C [8] 99% | viability, T/C [9] 74.9% | viability, T/C [10] 62% | viability, T/C [11] 52.1% | viability, T/C [12] 32.5% | viability, T/C [13] 58.4% | viability, T/C [14] 53.1% | viability, T/C [15] 38.7% | viability, T/C [16] 38.1% | viability, T/C [17] 25.4% | viability, T/C [18] 8.95%
